Publication PMC9068610, “Biliverdin regulates NR2E3 and zebrafish retinal photoreceptor development” (Scientific Reports, 2022)
Residue numbers refer to the chain shown, from its start.

How the values were obtained:
Type in all cases: binding
[1] = target: T1, NR2E3 (Homo sapiens, UniProt Q9Y5X4); experiment: visible absorbance titration; also gel filtration co-purification with LC-MS
T1 construct: MBP-NR2E3 LBD (amino acid residues 164–410 of 410 residue NR2E3)
T1 sequence (Q9Y5X4 164-410): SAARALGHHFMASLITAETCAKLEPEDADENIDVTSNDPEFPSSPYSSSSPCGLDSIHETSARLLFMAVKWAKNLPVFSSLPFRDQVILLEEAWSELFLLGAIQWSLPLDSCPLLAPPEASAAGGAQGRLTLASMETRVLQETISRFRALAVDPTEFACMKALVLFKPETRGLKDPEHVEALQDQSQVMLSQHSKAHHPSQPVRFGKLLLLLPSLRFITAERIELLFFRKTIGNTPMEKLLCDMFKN

[2] = target: T2, NR2E3 (Homo sapiens, UniProt Q9Y5X4, R311Q); experiment: visible absorbance titration
T2 construct: MBP-NR2E3 LBD R311Q variant
T2 sequence (Q9Y5X4 164-410 R311Q): T1 sequence (Q9Y5X4 164-410) with R148Q

[3] = target: T3, zebrafish NR2E3 (Danio rerio, UniProt Q5U3F3); experiment: visible absorbance titration
T3 construct: MBP-DrNR2E3 LBD
T3 sequence (Q5U3F3 178-419 limits assumed): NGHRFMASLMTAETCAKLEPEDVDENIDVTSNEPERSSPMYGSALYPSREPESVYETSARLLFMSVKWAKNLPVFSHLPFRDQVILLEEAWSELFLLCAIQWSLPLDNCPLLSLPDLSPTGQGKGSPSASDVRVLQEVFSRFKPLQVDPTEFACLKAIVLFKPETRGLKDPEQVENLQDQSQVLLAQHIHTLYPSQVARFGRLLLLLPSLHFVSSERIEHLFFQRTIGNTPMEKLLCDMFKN

With C=CC1=C(C)/C(=C/C2=NC(=C\c3[nH]c(/C=C4\NC(=O)C(C)=C4C=C)c(C)c3CCC(=O)O)/C(CCC(=O)O)=C2C)NC1=O [biliverdin] the Kd [1] was 0.2 µM, the Kd [2] was 9 µM and the visible absorbance titration [3] was “the spectrum of biliverdin showed changes similar to the one observed with human NR2E3^LBD”.
